Laboratory results as given in PubChem BioAssay (NCI).
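Cells were grown in 96-well plates and exposed to each compound for 48 hours at five concentrations; endpoints were interpolated linearly between bracketing concentrations, or set to the highest concentration if not reached. TGI is the concentration that stops growth completely.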

What was measured:
Assay in all cases: NCI anticancer screen, dose series, 48 h
[1] = tested on: 786-0 renal
[2] = tested on: A498 renal
[3] = tested on: A549 NSCLC
[4] = tested on: ACHN renal
[5] = tested on: BT-549 breast
[6] = tested on: CAKI-1 renal
[7] = tested on: CCRF-CEM leukemia
[8] = tested on: COLO 205 colon
[9] = tested on: DU-145 prostate
[10] = tested on: EKVX NSCLC
[11] = tested on: HCC-2998 colon
[12] = tested on: HCT-116 colon
[13] = tested on: HCT-15 colon
[14] = tested on: HL-60(TB) leukemia
[15] = tested on: HOP-62 NSCLC
[16] = tested on: HOP-92 NSCLC
[17] = tested on: HS 578T breast
[18] = tested on: HT29 colon
[19] = tested on: K-562 leukemia
[20] = tested on: KM12 colon
[21] = tested on: LOX IMVI melanoma
[22] = tested on: M14 melanoma
[23] = tested on: MALME-3M melanoma
[24] = tested on: MCF7 breast
[25] = tested on: MDA-MB-231 breast
[26] = tested on: MDA-MB-435
[27] = tested on: MDA-N
[28] = tested on: MOLT-4 leukemia
[29] = tested on: NCI-H226 lung
[30] = tested on: NCI-H23 lung
[31] = tested on: NCI-H460 lung
[32] = tested on: NCI-H522 lung
[33] = tested on: NCI/ADR-RES ovarian
[34] = tested on: OVCAR-3 ovarian
[35] = tested on: OVCAR-4 ovarian
[36] = tested on: OVCAR-5 ovarian
[37] = tested on: OVCAR-8 ovarian
[38] = tested on: PC-3 prostate
[39] = tested on: RXF 393 renal
[40] = tested on: SF-268 CNS
[41] = tested on: SF-295 CNS
[42] = tested on: SF-539 CNS
[43] = tested on: SK-MEL-2 melanoma
[44] = tested on: SK-MEL-28 melanoma
[45] = tested on: SK-MEL-5 melanoma
[46] = tested on: SK-OV-3 ovarian
[47] = tested on: SN12C renal
[48] = tested on: SNB-19 CNS
[49] = tested on: SNB-75 CNS
[50] = tested on: SR leukemia
[51] = tested on: SW-620 colon
[52] = tested on: T-47D breast
[53] = tested on: TK-10 renal
[54] = tested on: U251 CNS
[55] = tested on: UACC-257 melanoma
[56] = tested on: UACC-62 melanoma
[57] = tested on: UO-31 renal
[58] = tested on: IGROV1 ovarian
[59] = tested on: RPMI-8226 leukemia

c1cc(-c2ccc(-c3ccc(C4=NCCCN4)cc3)o2)ccc1C1=NCCCN1
TGI [1]: > 100 µM
TGI [2]: 13.4 µM
TGI [3]: > 100 µM
TGI [4]: > 100 µM
TGI [5]: > 100 µM
TGI [6]: > 100 µM
TGI [7]: > 100 µM
TGI [8]: > 100 µM
TGI [9]: > 100 µM
TGI [10]: > 100 µM
TGI [11]: > 100 µM
TGI [12]: > 100 µM
TGI [13]: > 100 µM
TGI [14]: > 100 µM
TGI [15]: > 100 µM
TGI [16]: > 100 µM
TGI [17]: > 100 µM
TGI [18]: > 100 µM
TGI [19]: > 100 µM
TGI [20]: > 100 µM
TGI [21]: > 100 µM
TGI [22]: > 100 µM
TGI [23]: > 100 µM
TGI [24]: > 100 µM
TGI [25]: > 100 µM
TGI [26]: > 100 µM
TGI [27]: > 100 µM
TGI [28]: > 100 µM
TGI [29]: > 100 µM
TGI [30]: > 100 µM
TGI [31]: > 100 µM
TGI [32]: > 100 µM
TGI [33]: > 100 µM
TGI [34]: > 100 µM
TGI [35]: > 100 µM
TGI [36]: > 100 µM
TGI [37]: > 100 µM
TGI [38]: > 100 µM
TGI [39]: > 100 µM
TGI [40]: > 100 µM
TGI [41]: > 100 µM
TGI [42]: > 100 µM
TGI [43]: > 100 µM
TGI [44]: > 100 µM
TGI [45]: > 100 µM
TGI [46]: > 100 µM
TGI [47]: 95.7 µM
TGI [48]: > 100 µM
TGI [49]: > 100 µM
TGI [50]: > 100 µM
TGI [51]: > 100 µM
TGI [52]: > 100 µM
TGI [53]: > 100 µM
TGI [54]: > 100 µM
TGI [55]: > 100 µM
TGI [56]: > 100 µM
TGI [57]: > 100 µM

CCC(O)CC1OC2(CCC1C)CC1OC(=O)/C=C\C(C)(O)C(O)C(C)C(O)C(OC3CC(OC)C(O)C(C)O3)C(O)C(C)(O)CCC/C=C/C3CC(C)COC3(O)CC(O2)C1C (centres undefined)
TGI [1]: > 89.4 µM
TGI [2]: > 100 µM
TGI [3]: > 100 µM
TGI [4]: 50.9 µM
TGI [5]: 41.2 µM
TGI [6]: 33.3 µM
TGI [7]: > 60.5 µM
TGI [8]: 17.2 µM
TGI [9]: > 100 µM
TGI [10]: 26 µM
TGI [11]: 62.3 µM
TGI [12]: 29.5 µM
TGI [13]: 56.8 µM
TGI [14]: 10.6 µM
TGI [15]: 35.7 µM
TGI [16]: > 100 µM
TGI [17]: 38.2 µM
TGI [18]: 35.1 µM
TGI [58]: 47.1 µM
TGI [20]: 16.8 µM
TGI [21]: 36.7 µM
TGI [22]: 22 µM
TGI [23]: 35.5 µM
TGI [24]: 30.2 µM
TGI [25]: > 77.9 µM
TGI [26]: 25.4 µM
TGI [27]: 23.8 µM
TGI [28]: 7.84 µM
TGI [29]: 27.3 µM
TGI [30]: 71 µM
TGI [31]: > 75.2 µM
TGI [32]: 16.3 µM
TGI [33]: 45.1 µM
TGI [34]: 27.2 µM
TGI [35]: 48.6 µM
TGI [36]: 53 µM
TGI [37]: 24.6 µM
TGI [38]: 20.4 µM
TGI [39]: > 100 µM
TGI [40]: 90.1 µM
TGI [41]: > 41.8 µM
TGI [42]: 44.9 µM
TGI [43]: 29.6 µM
TGI [44]: 54.6 µM
TGI [45]: 8.9 µM
TGI [46]: > 100 µM
TGI [47]: > 77.3 µM
TGI [48]: > 100 µM
TGI [49]: 27.3 µM
TGI [50]: > 80.7 µM
TGI [51]: > 100 µM
TGI [52]: 23.6 µM
TGI [53]: 37 µM
TGI [54]: > 100 µM
TGI [55]: 15.4 µM
TGI [56]: 32.2 µM
TGI [57]: 68.7 µM

C/C(=N\NC(=S)Nc1ccccc1)c1nc2ncccc2[nH]1
TGI [1]: 74 µM
TGI [2]: 33.1 µM
TGI [3]: > 100 µM
TGI [4]: 47.8 µM
TGI [5]: 26.2 µM
TGI [6]: > 100 µM
TGI [8]: > 100 µM
TGI [9]: 18.2 µM
TGI [10]: 6.12 µM
TGI [11]: 20.5 µM
TGI [12]: 14 µM
TGI [13]: 19.8 µM
TGI [14]: > 100 µM
TGI [15]: 59 µM
TGI [16]: > 100 µM
TGI [17]: 77.7 µM
TGI [18]: 18.8 µM
TGI [58]: 24.2 µM
TGI [19]: 60.8 µM
TGI [20]: > 100 µM
TGI [21]: 15.8 µM
TGI [22]: > 100 µM
TGI [23]: 57.7 µM
TGI [24]: 20.3 µM
TGI [25]: 55.5 µM
TGI [26]: 60.3 µM
TGI [27]: > 100 µM
TGI [28]: 16.8 µM
TGI [29]: 13.2 µM
TGI [30]: 48.7 µM
TGI [31]: 13.8 µM
TGI [32]: 17.1 µM
TGI [33]: 22 µM
TGI [34]: 17.1 µM
TGI [35]: 47.4 µM
TGI [36]: 61 µM
TGI [37]: 16 µM
TGI [38]: > 100 µM
TGI [59]: 84.4 µM
TGI [40]: 39 µM
TGI [41]: 18.3 µM
TGI [42]: 6.8 µM
TGI [43]: 47 µM
TGI [44]: 6.79 µM
TGI [45]: 15 µM
TGI [46]: > 100 µM
TGI [47]: 36.3 µM
TGI [48]: 60.1 µM
TGI [49]: 79.2 µM
TGI [50]: > 100 µM
TGI [51]: > 100 µM
TGI [52]: 24 µM
TGI [54]: 16.9 µM
TGI [55]: 11.1 µM
TGI [57]: 7.47 µM
